Reference: patent US20230235077A1, “MATERIALS AND METHODS OF TREATING CANCER” (THE GENERAL HOSPITAL CORPORATION, priority 2020, published 2023)

Experiments:
D4M.3A melanoma cells = assay: D4M.3A melanoma in mice: interval versus continuous mepazine with anti-PD-1 (Example 1); type: in vivo; settings: female C57BL/6 mice; mepazine 16 mg/kg i.p. daily on days 7-10 only versus continuously to day 19; with anti-PD-1 mAb 200 μg i.p. daily; FIG. 1
Procedure: Female C57BL/6 mice were implanted subcutaneously with 10^6 D4M.3A melanoma cells. Starting 7 days later (arrow), animals were treated with daily i.p. injections of 200 μg of anti-PD-1 mAbs (clone 29F.1A12) or isotype control mAb (rat IgG2a). Some animals in addition received daily i.p. injections of 16 mg/kg bodyweight of the allosteric MALT-1 inhibitor mepazine, either for the first 4 days (days 7-10) only, or continuously until the end of the experiment on day 19. Tumor size was measured using a caliper every 2-3 days. n=4/group. *=p<0.05 versus Ctrl.

D4M.3A syngeneic tumors [1] = assay: D4M.3A syngeneic tumor efficacy study: (S)-mepazine IP ×3, ×7 or QD with anti-PD1 (Example 6); type: in vivo, C57BL/6 mice
Procedure: Male C57BL/6 mice were implanted subcutaneously with D4M.3A syngeneic tumors. The mice were dosed with (S)-mepazine IP and with anti-PD1 mouse clone 29F.1A12 dosed 3 times 200 μg/dose at days 0, 2, and 4 of a treatment cycle. A ×3 arm of mice were dosed at days 0, 1, and 3 of a 21 day treatment cycle with (S)-mepazine IP. A ×7 arm of mice were dosed at days 0-6 of a 21 day treatment cycle with (S)-mepazine IP. A QD arm of mice were dosed daily with (S)-mepazine IP. Tumor volume was measured each day. The results of the study are shown in FIGS. 2 and 3, for ×3 arm and ×7 arm, respectively.

D4M.3A syngeneic tumors [2] = assay: D4M.3A syngeneic tumor efficacy study: (S)-mepazine PO 5 days on/5 days off or QD with anti-PD1 (Example 7); type: in vivo; settings: male C57BL/6 mice; (S)-mepazine PO 5 days on and 5 days off versus each day; with anti-PD1 200 μg at days 0, 2, 4; FIG. 4
Procedure: Male C57BL/6 mice were implanted subcutaneously with D4M.3A syngeneic tumors. The mice were dosed with (S)-mepazine PO and with anti-PD1 mouse clone 29F.1A12 dosed 3 times 200 μg/dose at days 0, 2, and 4 of a treatment cycle. The mice were dosed 5 days on with (S)-mepazine and 5 days off (a dose holiday) (5+5) or each day with (S)-mepazine (QD) PO. Tumor volume was measured each day.

| SMILES | Tumor size, interval versus continuous treatment (D4M.3A melanoma cells) | Tumor control of ×3 and ×7 arms versus QD dosing arm (D4M.3A syngeneic tumors [1]; (S)-mepazine IP with anti-PD1, up to 7 days after (S)-mepazine was dosed) | Tumor volume, activity against the tumor compared to anti-PD1 alone, ×3 arm (D4M.3A syngeneic tumors [1]; male C57BL/6 mice, (S)-mepazine IP on days 0, 1 and 3 of 21 day cycle, with anti-PD1 200 μg at days 0, 2, 4, FIG. 2) | Tumor volume, activity against the tumor compared to anti-PD1 alone, ×7 arm (D4M.3A syngeneic tumors [1]; male C57BL/6 mice, (S)-mepazine IP on days 0-6 of 21 day cycle, with anti-PD1 200 μg at days 0, 2, 4, FIG. 3) | Duration of efficacy for tumor control after (S)-mepazine was dosed (D4M.3A syngeneic tumors [1]; ×3 and ×7 arms, (S)-mepazine IP with anti-PD1, male C57BL/6 mice) | Tumor volume, 5+5 dosing versus QD dosing (D4M.3A syngeneic tumors [2]) |
| --- | --- | --- | --- | --- | --- | --- |
| CN1CCCC(CN2c3ccccc3Sc3ccccc32)C1 (racemic) [mepazine] | at least as effective as continuous treatment |  |  |  |  |  |
| CN1CCC[C@H](CN2c3ccccc3Sc3ccccc32)C1 [(S)-mepazine] |  | comparable to the QD dosing arm | improved activity against the tumor compared to anti-PD1 alone | improved activity against the tumor compared to anti-PD1 alone | up to 7 days | equivalent to a QD dosing schedule |
